Measured values as given in patent US8586619B2, “Agents of calcium ion channel modulators” (VM Therapeutics LLC, priority 2007, dated 2013).

Tested on: Formalin induced pain in rat animal models of hyperalgesia
Assay: Rat Formalin Paw Test (in vivo assay)
Settings: flinches, shown in FIGS. 1 and 2
Protocol: Rat Formalin Paw Test (in Vivo Assay): Compounds were assessed for their ability to inhibit the behavioral response evoked by an injection of formalin (50 μl of 5% formalin). A metal band was affixed to the left hind paw of male Holtzman rats (225-250 g, Harlan Industries, Indianapolis Ind.) and each rat was conditioned to the band for 60 min within a plastic cylinder (15 cm diameter). Rats were dosed with either vehicle, positive control compound or a test compound either before (local) or after (systemic) formalin challenge. For local administration, compounds were prepared in either a 10:7.5 vehicle of saline (in mL) and (D)- or (L)-Tartaric acid (in mg), or a 1:1:6 vehicle of DMA (N,N-Dimethylacetamide), Tween 80 and saline, and injected […] into the dorsal surface of the right hind paw of the rat 60 min prior to formalin. The number of flinches was counted continuously for 60 min using an automated nociception analyzer (UCSD Anesthesiology Research, San Diego, Calif.). Statistical significance was determined by comparing the total flinches detected in the early (0-10 min, Phase I) and late (11-60 min) phase with an unpaired t-test. […]

Structure (SMILES)	reduction of Formalin induced pain
O=C(c1ccc(F)cc1)C1CCN(CCn2c(=O)[nH]c3ccccc3c2=O)CC1 [Compound 401, 3-{2-[4-(4-Fluoro-benzoyl)-piperidin-1-yl]-ethyl}-1H-quinazoline-2,4-dione]	reduction of Formalin induced pain
CC1CCCC(NC(=O)C2N(C(C)CCc3ccccc3)C(=O)C3C(C(=O)Nc4cc(Cl)cc(Cl)c4)C4C=CC32O4)C1C (centres unmarked) [Compound 52, 3-(1-Methyl-3-phenyl-propyl)-4-oxo-10-oxa-3-aza-tricyclo[5.2.1.0^1,5]dec-8-ene-2,6-dicarboxylic acid 2-[(3,5-dichloro-phenyl)-amide]6-[(2,3-dimethyl-cyclohexyl)-amide]]	reduction of Formalin induced pain
